These are literature values, as cited in patent US20210353783A1, “IMAGING AGENTS FOR RADIOLABELING EXOGENOUS AND ENDOGENOUS ALBUMIN” (CENTURION BIOPHARMA CORPORATION, priority 2018, published 2021).

Structures are written as SMILES.

The conditions of data set [1]: human, after intravenous administration, bound to cysteine-34 of endogenous albumin.
The conditions of data set [2]: phase 1-3 clinical trials.
The next data set deals with circulating albumin (Homo sapiens, UniProt P02768).
circulating albumin, sequence (P02768 25-609): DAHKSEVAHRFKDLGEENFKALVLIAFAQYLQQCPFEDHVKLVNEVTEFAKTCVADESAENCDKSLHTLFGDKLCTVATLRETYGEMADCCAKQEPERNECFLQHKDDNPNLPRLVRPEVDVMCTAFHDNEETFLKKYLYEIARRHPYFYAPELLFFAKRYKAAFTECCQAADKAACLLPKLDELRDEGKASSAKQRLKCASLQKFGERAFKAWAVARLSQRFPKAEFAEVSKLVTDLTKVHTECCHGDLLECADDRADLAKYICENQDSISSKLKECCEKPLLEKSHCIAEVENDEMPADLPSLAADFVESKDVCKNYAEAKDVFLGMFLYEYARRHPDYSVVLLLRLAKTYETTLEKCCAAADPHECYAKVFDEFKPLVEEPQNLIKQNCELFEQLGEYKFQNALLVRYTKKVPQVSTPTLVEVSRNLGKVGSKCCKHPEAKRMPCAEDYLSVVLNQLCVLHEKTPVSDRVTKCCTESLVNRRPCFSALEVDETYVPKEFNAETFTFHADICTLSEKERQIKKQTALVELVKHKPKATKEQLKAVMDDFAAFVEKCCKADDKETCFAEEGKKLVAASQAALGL

With `COc1cccc2c1C(=O)c1c(O)c3c(c(O)c1C2=O)C[C@@](O)(/C(CO)=N/NC(=O)CCCCCN1C(=O)C=CC1=O)C[C@@H]3O[C@H]1C[C@H](N)[C@H](O)[C@H](C)O1` [aldoxorubicin, (6-maleimidocaproyl)hydrazone derivative of doxorubicin], in data set [1], the t1/2 in man was 20 to 21 h. Further, in data set [2], the cardiotoxicity entry is listed as “lack of cardiotoxicity” and the “increase in the maximum tolerated dose (MTD) compared to conventional doxorubicin” value is 3.5 fold. For the same compound, the “binding to circulating albumin” value at circulating albumin was “rapidly and selectively bound to circulating albumin within a few minutes”.
